Results from patent US9914709B2, “Compositions and methods of treating HIV-1 infections using same” (YALE UNIVERSITY, priority 2013, dated 2018).
In brackets after ≈: the same amount, converted by molar mass. Where two headings read alike, the source gives them in different places. Marks after values point to notes of the source that are not given here.

Legend:
[1] = system: HIV-1 K103N/Y181C variant; experiment: microbe, parasite or virus in culture; assay type: cell-based
[2] = system: HIV-1 Y181C variant; experiment: microbe, parasite or virus in culture; assay type: cell-based
[3] = system: IIIB strain of HIV-1 (wild-type); experiment: Anti-HIV-1 activity, MT-2 cells infected with wild-type HIV-1 (IIIB), MTT method; assay type: cell-based; settings: for EC50: Human immunodeficiency virus 1, IIIB, MT2, read-out: EC50 WT
[4] = physchem; settings: for solubility at 48 h: 25 °C, thermodynamic from solid; for increase in S: 48 h
Procedure: The compounds were dissolved in Britton-Robinson buffer and stirred in vials for 48 hours at 25° C. The pH of the buffer solutions was measured by a Corning General Purpose pH Combination probe (4136L21).
For measurement of aqueous solubility, the pH of the buffer solutions was measured by Corning Combination pH Electrodes (4136L21) pH meter with Ag/AgCl glass electrode. […] An Ika® RCT basic magnetic stirrer was used to mix the two phases.
The equilibrium solubility of the non-ionized form of the samples was determined by the shake flask method. For each reported solubility result, two or three independent shake-flask experiments were carried out in parallel. For each experiment the 5 mg of the solid was added to 5 mL of the buffer in a vial. […] The standards and samples were measured by UV spectrophotometry at the maximum wavelength of the individual compounds.

[5] = in vitro; settings: human
[6] = cited from earlier work; for aqueous solubility: literature values
[7] = Human immunodeficiency virus 1, MT2, read-out: EC50 K103N/Y181C
[8] = Human immunodeficiency virus 1, MT2, read-out: EC50 Y181C
[9] = Human immunodeficiency virus 1, MT2, read-out: EC50, Y181C variant

| SMILES | EC50 [1, 7] | EC50 [2, 8] | EC50 [3] | CC50 [5] | further results |
| --- | --- | --- | --- | --- | --- |
| N#Cc1ccc(Nc2nc(Nc3c(F)cc(C4CC4)cc3F)nc(OCCCN3CCOCC3)n2)cc1 [Compound 6h, 4-((4-((4-cyclopropyl-2,6-difluorophenyl)amino)-6-(3-morpholinopropoxy)-1,3,5-triazin-2-yl)amino)benzonitrile] | 150 nM | 1100 nM | – | – | – |
| COc1nc(Nc2ccc(C#N)c(OCC=C(C)C)c2)nc(OCCN2CCOCC2)n1 [Compound 2j, 4-((4-methoxy-6-(2-morpholinoethoxy)-1,3,5-triazin-2-yl)amino)-2-((3-methylbut-2-en-1-yl)oxy)benzonitrile] | – | – | – | – | reduction in wild-type potency ([3]; relative to parent lacking the morpholinoalkoxy group (2a; 10a)): 9 fold; activity in the wild-type cell assay less ([3]; than rilpivirine or dapivirine): 100 fold; activity towards the Y181C-containing viral variant [2]: does not show activity |
| Cc1cc(/C=C/C#N)cc(C)c1Nc1cc(OCCCN2CCOCC2)nc(Nc2ccc(C#N)cc2)n1 [Compound 5c, (E)-4-((4-((4-(2-cyanovinyl)-2,6-dimethylphenyl)amino)-6-(3-morpholinopropoxy)pyrimidin-2-yl)amino)benzonitrile] | 3 nM | 15 nM | 3.7 nM | 6400 nM | solubility at 48 h ([4]; pH 6.5, aqueous buffer): 2 µg/mL |
| N#C/C=C/c1cc(F)c(Nc2nc(NCCCN3CCOCC3)nc(Nc3ccc(C#N)cc3)n2)c(F)c1 [JLJ0597, (E)-4-((4-((4-(2-cyanovinyl)-2,6-difluorophenyl)amino)-6-((3-morpholinopropyl)amino)-1,3,5-triazin-2-yl)amino)benzonitrile] | 16 nM | 75 nM | 5.7 nM | 7000 nM | – |
| Cc1cc(C)c(Nc2nc(Nc3ccc(C#N)cc3)nc(OCCCN3CCOCC3)n2)c(C)c1 [Compound 6b, 4-((4-(mesitylamino)-6-(3-morpholinopropoxy)-1,3,5-triazin-2-yl)amino)benzonitrile] | 31 nM | 310 nM | – | – | EC50 ([1]; Human immunodeficiency virus 1, MT2, read-out: EC50, K103N/Y181C variant): 31 nM; Aqueous Solubility (S) ([4]; Table 5, pH 6.5): 15.3 µg/mL; EC50 [2, 9]: 310 nM |
| Cc1cc(C)c(Nc2cc(OCCN3CCOCC3)nc(Nc3ccc(C#N)cc3)n2)c(C)c1 [Compound 5a, 4-((4-(mesitylamino)-6-(2-morpholinoethoxy)pyrimidin-2-yl)amino)benzonitrile] | 60 nM | 700 nM | – | – | increase in S [4]: 83 fold; Aqueous Solubility (S) ([4]; Table 5, pH 6.5): 12.5 µg/mL; EC50 [2, 9]: 700 nM |
| Cc1cc(/C=C/C#N)cc(C)c1Nc1nc(NCCCN2CCOCC2)nc(Nc2ccc(C#N)cc2)n1 [JLJ0596, (E)-4-((4-((4-(2-cyanovinyl)-2,6-dimethylphenyl)amino)-6-((3-morpholinopropyl)amino)-1,3,5-triazin-2-yl)amino)benzonitrile] | 68 nM | 510 nM | 7 nM | 1800 nM | – |
| Cc1cc(/C=C/C#N)cc(C)c1Nc1nc(Nc2ccc(C#N)cc2)nc(OCCCN2CCOCC2)n1 [Compound 6d, (E)-4-((4-((4-(2-cyanovinyl)-2,6-dimethylphenyl)amino)-6-(3-morpholinopropoxy)-1,3,5-triazin-2-yl)amino)benzonitrile] | – | – | – | – | solubility at 48 h ([4]; aqueous buffer): 14.2 µg/mL; increase in S [4]: 100 fold; Aqueous Solubility (S) ([4]; Table 5, pH 6.5): 14.2 µg/mL |
| N#C/C=C/c1cc(F)c(Nc2cc(NCCCN3CCOCC3)nc(Nc3ccc(C#N)cc3)n2)c(F)c1 [JLJ0619, (E)-4-((4-((4-(2-cyanovinyl)-2,6-difluorophenyl)amino)-6-((3-morpholinopropyl)amino)pyrimidin-2-yl)amino)benzonitrile] | 34 nM | 470 nM | 4.5 nM | 2200 nM | – |
| Cc1cc(C#N)cc(C)c1Oc1nc(Nc2ccc(C#N)cc2)nc(N)c1Br [etravirine] | – | – | – | – | Aqueous Solubility (S) ([6]; Table 5, literature values (Morelock 1994; Weuts 2011)): <<1^b μg/mL; aqueous solubility [6]: lower than 1 μg/mL |
| CC(C)=CCOc1cc(NC(=S)c2ccoc2C)ccc1Cl [UC-781] | – | – | – | – | solubility ([6]; Yang et al. 2008): < 0.03 µg/mL |
| Cc1cc(C)c(Nc2nc(Nc3ccc(C#N)cc3)nc(OCCN3CCOCC3)n2)c(C)c1 [Compound 6a, 4-((4-(mesitylamino)-6-(2-morpholinoethoxy)-1,3,5-triazin-2-yl)amino)benzonitrile] | 110 nM | 700 nM | – | – | Aqueous Solubility (S) ([4]; Table 5, pH 6.5): 4.42 µg/mL |
| Cc1cc(/C=C/C#N)cc(C)c1Nc1cc(NCCCN2CCOCC2)nc(Nc2ccc(C#N)cc2)n1 [JLJ0618, (E)-4-((4-((4-(2-cyanovinyl)-2,6-dimethylphenyl)amino)-6-((3-morpholinopropyl)amino)pyrimidin-2-yl)amino)benzonitrile] | 2 nM | 17 nM | 3 nM | 4500 nM | – |
| N#C/C=C/c1cc(F)c(Nc2nc(Nc3ccc(C#N)cc3)nc(OCCCN3CCOCC3)n2)c(F)c1 [Compound 6j, (E)-4-((4-((4-(2-cyanovinyl)-2,6-difluorophenyl)amino)-6-(3-morpholinopropoxy)-1,3,5-triazin-2-yl)amino)benzonitrile] | 46 nM | 630 nM | 14 nM | 6500 nM | – |
| Cc1cc(C)c(Nc2nc(Nc3ccc(C#N)cc3)nc(OCCCC3CCNCC3)n2)c(C)c1 [Compound 12b, 4-((4-(mesitylamino)-6-(3-(piperidin-4-yl)propoxy)-1,3,5-triazin-2-yl)amino)benzonitrile] | 140 nM | 1200 nM | – | – | – |
| Cc1cc(C#N)cc(C)c1Nc1nc(Nc2ccc(C#N)cc2)nc(OCCCN2CCOCC2)n1 [Compound 6c, 4-((4-((4-cyanophenyl)amino)-6-(3-morpholinopropoxy)-1,3,5-triazin-2-yl)amino)-3,5-dimethylbenzonitrile] | 42 nM | 1000 nM | – | – | Aqueous Solubility (S) ([4]; Table 5, pH 6.5): 13.3 µg/mL |
| Cc1cc(F)c(Nc2nc(Nc3ccc(C#N)cc3)nc(OCCCN3CCOCC3)n2)c(F)c1 [Compound 6e, 4-((4-((2,6-difluoro-4-methylphenyl)amino)-6-(3-morpholinopropoxy)-1,3,5-triazin-2-yl)amino)benzonitrile] | 70 nM | 350 nM | – | – | Aqueous Solubility (S) ([4]; Table 5, pH 6.5): 22.9 µg/mL |
| CC(C)c1cc(F)c(Nc2nc(Nc3ccc(C#N)cc3)nc(OCCCN3CCOCC3)n2)c(F)c1 [Compound 6g, 4-((4-((2,6-difluoro-4-isopropylphenyl)amino)-6-(3-morpholinopropoxy)-1,3,5-triazin-2-yl)amino)benzonitrile] | 30 nM | 270 nM | – | – | – |
| N#CCCc1cc(F)c(Nc2nc(Nc3ccc(C#N)cc3)nc(OCCCN3CCOCC3)n2)c(F)c1 [Compound 6i, 4-((4-((4-(2-cyanoethyl)-2,6-difluorophenyl)amino)-6-(3-morpholinopropoxy)-1,3,5-triazin-2-yl)amino)benzonitrile] | 20 nM | 230 nM | 5 nM | 27000 nM | solubility at 48 h ([4]; pH 6.5, aqueous buffer): 25.4 µg/mL |
| Cc1cc(C)c(Nc2cc(OCCCN3CCOCC3)nc(Nc3ccc(C#N)cc3)n2)c(C)c1 [Compound 5b, 4-((4-(mesitylamino)-6-(3-morpholinopropoxy)pyrimidin-2-yl)amino)benzonitrile] | 38 nM | 480 nM | – | – | increase in S [4]: 182 fold; Aqueous Solubility (S) ([4]; Table 5, pH 6.5): 27.3 µg/mL; EC50 [2, 9]: 480 nM |
| Cc1cc(C)c(Nc2nc(Nc3ccc(C#N)cc3)nc(OCCC3CCNCC3)n2)c(C)c1 [Compound 12a, 4-((4-(mesitylamino)-6-(2-(piperidin-4-yl)ethoxy)-1,3,5-triazin-2-yl)amino)benzonitrile] | 42 nM | 1000 nM | – | – | – |
| N#C/C=C/c1cc(F)c(Nc2cc(OCCCN3CCOCC3)nc(Nc3ccc(C#N)cc3)n2)c(F)c1 [Compound 5d, (E)-4-((4-((4-(2-cyanovinyl)-2,6-difluorophenyl)amino)-6-(3-morpholinopropoxy)pyrimidin-2-yl)amino)benzonitrile] | 7.1 nM | 150 nM | 4.1 nM | 18000 nM | – |
| CCc1cc(F)c(Nc2nc(Nc3ccc(C#N)cc3)nc(OCCCN3CCOCC3)n2)c(F)c1 [Compound 6f, 4-((4-((4-ethyl-2,6-difluorophenyl)amino)-6-(3-morpholinopropoxy)-1,3,5-triazin-2-yl)amino)benzonitrile] | 50 nM | 500 nM | – | – | – |
| CN1C(C(=O)Nc2ccccn2)=C(O)c2ccccc2S1(=O)=O [Piroxicam, reference compound] | – | – | – | – | Aqueous Solubility (S) ([4]; shake-flask, 25° C.): 7.2 µg/mL; aqueous solubility [6]: 6.4 µg/mL (≈ 19.3 µM) |
